In ChEMBL document CHEMBL1129029, “Understanding the binding of 5-substituted 2'-deoxyuridine substrates to thymidine kinase of herpes simplex virus type-1” (J Med Chem, 1996):

These molecules were tested against T1, Thymidine kinase (Human herpesvirus 1 (strain SC16) (HHV-1) (Human herpes simplex virus1), UniProt P06479) (assay: Binding affinity towards HSV-1 thymidine kinase).
T1 sequence (P06479 whole entry): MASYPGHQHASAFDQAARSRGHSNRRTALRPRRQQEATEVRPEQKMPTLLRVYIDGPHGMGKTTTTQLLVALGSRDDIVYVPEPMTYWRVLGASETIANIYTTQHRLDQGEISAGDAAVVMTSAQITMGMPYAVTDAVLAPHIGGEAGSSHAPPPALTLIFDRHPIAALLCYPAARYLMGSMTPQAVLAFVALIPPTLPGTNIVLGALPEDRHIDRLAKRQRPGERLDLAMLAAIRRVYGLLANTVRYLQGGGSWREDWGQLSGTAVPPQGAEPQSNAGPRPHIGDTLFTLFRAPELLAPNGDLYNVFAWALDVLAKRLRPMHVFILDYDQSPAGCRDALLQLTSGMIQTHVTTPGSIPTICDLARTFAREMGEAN
Work on O=c1[nH]c(=O)n([C@H]2C[C@H](O)[C@@H](CO)O2)cc1-c1cc(Br)no1 yielded an IC50 of 34 µM. O=c1[nH]c(=O)n([C@H]2C[C@H](O)[C@@H](CO)O2)cc1-c1ccc(Br)o1 showed an IC50 of 51 µM. O=c1[nH]c(=O)n([C@H]2C[C@H](O)[C@@H](CO)O2)cc1-c1sc(Br)cc1Br showed an IC50 of 62 µM. In the case of Cc1ccc(-c2cn([C@H]3C[C@H](O)[C@@H](CO)O3)c(=O)[nH]c2=O)s1, the IC50 is reported as 2.3 µM. For O=c1[nH]c(=O)n([C@H]2C[C@H](O)[C@@H](CO)O2)cc1-c1ccccc1, the IC50 was 102 µM. For O=c1[nH]c(=O)n([C@H]2C[C@H](O)[C@@H](CO)O2)cc1-c1ccc(Cl)s1, the IC50 was 2.3 µM. For O=c1[nH]c(=O)n([C@H]2C[C@H](O)[C@@H](CO)O2)cc1-c1ccoc1, the IC50 was 1.5 µM. Work on O=c1[nH]c(=O)n([C@H]2C[C@H](O)[C@@H](CO)O2)cc1-c1ccns1 yielded an IC50 of 3.1 µM. O=c1[nH]c(=O)n([C@H]2C[C@H](O)[C@@H](CO)O2)cc1-c1ccco1 was tested, and the IC50 was 2.9 µM. With O=c1[nH]c(=O)n([C@H]2C[C@H](O)[C@@H](CO)O2)cc1-c1ccno1 the IC50 was 36 µM. In the case of O=c1[nH]c(=O)n([C@H]2C[C@H](O)[C@@H](CO)O2)cc1-c1cccs1, the IC50 is reported as 2.4 µM. O=c1[nH]c(=O)n([C@H]2C[C@H](O)[C@@H](CO)O2)cc1-c1sccc1Br showed an IC50 of 61 µM. Molecule O=c1[nH]c(=O)n([C@H]2C[C@H](O)[C@@H](CO)O2)cc1-c1cscc1Br has an IC50 of 143 µM. In the case of O=c1[nH]c(=O)n([C@H]2C[C@H](O)[C@@H](CO)O2)cc1-c1ccc(Cl)o1, the IC50 is reported as 28 µM. O=c1[nH]c(=O)n([C@H]2C[C@H](O)[C@@H](CO)O2)cc1-c1ccc(Br)s1 showed an IC50 of 3.5 µM. With O=c1[nH]c(=O)n([C@H]2C[C@H](O)[C@@H](CO)O2)cc1-c1ccsc1 the IC50 was 4 µM.
